One data set has as its target T1, h-DHODH (Homo sapiens, UniProt Q02127).
T1 construct: endogenous in cells; host or cells: U937 cells (membrane fraction, solubilised with 1% octyl glucoside)
Briefly: Dihydro-orotate dehydrogenase inhibition assay (U937 membrane preparations, DCIP reduction). It is filed as biochemical. The conditions noted are these: U937 membrane preparation; for inhibition at 0.3 µM: compound tested at 0.3 uM (footnote *). Here is the method: Dihydro-Orotate Dehydrogenase Inhibition Assay
Dihydro-orotate dehydrogenase (DHODH) catalyzes the […] of dihydro-orotate to orotate during de novo biosynthesis of pyrimidines Inhibition of DHODH activity in U937 membrane preparations was measured by the dihydro-orotate driven reduction of 2,6 dichloroindophenol (DCIP).
U937 cells were homogenized in 20 mM Tris/HCl (pH 7.2) containing 1 mM EDTA. […] Following washes, the pellet was dissolved in 20 mM Tris/HCl containing 150 mM NaCl, 1 mM EDTA, and 1% octyl glucoside on ice for 1 h. Particulate matter was removed by centrifugation at 100000×g for 1 h at 4° C. […] The mixture was incubated at 37° C. for 4 h before measuring the change in absorbance on a plate reader (BMG Labtech., Germany) at 600 nm. Data were analyzed using GraphPad Prism. IC50 for each compound was determined based on the percent inhibition of dihydro-orotate […].

Another data set relates to IL-17. Briefly: Inhibition of IL-17 release from mouse splenocytes (PMA + ionomycin, ELISA). The conditions noted are these: Splenocyte, 10 μM, 3 h. It is filed as cell-based, Balb/c mice. Here is the method:
2. Inhibition of IL-17 Release from Mouse Splenocytes:
Splenocytes isolated from Balb/c mice were re-suspended in RPMI medium at a concentration of 1×10^6 cells/ml and seeded in a 6 well plate. Cells were incubated with desired concentrations of the inhibitor for 15 min prior to induction with 10 ng/ml PMA+1 μM ionomycin. After a 3 h incubation, supernatant was collected and analyzed for IL-17 concentration using an ELISA kit. Data were analyzed using GraphPad Prism. IC50 values for each compound were determined based on the percent inhibition due to the test compound compared to the control.
For orientation: ELISA stands for enzyme-linked immunosorbent assay.

T1 sequence (Q02127 whole entry): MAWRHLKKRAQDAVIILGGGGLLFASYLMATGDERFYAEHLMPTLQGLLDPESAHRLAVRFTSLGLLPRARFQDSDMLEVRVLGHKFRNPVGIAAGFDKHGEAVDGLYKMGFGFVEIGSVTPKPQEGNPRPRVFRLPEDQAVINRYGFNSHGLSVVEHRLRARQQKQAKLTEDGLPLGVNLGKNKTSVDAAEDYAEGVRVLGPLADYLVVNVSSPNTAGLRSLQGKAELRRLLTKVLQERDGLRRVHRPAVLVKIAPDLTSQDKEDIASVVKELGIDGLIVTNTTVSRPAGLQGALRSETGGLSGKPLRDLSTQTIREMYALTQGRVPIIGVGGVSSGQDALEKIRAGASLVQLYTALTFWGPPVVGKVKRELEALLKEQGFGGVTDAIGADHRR

As a reminder, the inhibition is the share of the control response that was lost under treatment. In general, IC50 refers to the midpoint of a concentration-inhibition curve. Low values mean higher potency, high ones lower potency. A word on the melting point: it is the temperature of the solid-liquid transition. `O=C(O)c1ccccc1C(=O)Nc1c(F)cc(-c2ccccc2Cl)cc1F` [Example 8, 2-(2′-Chloro-3,5-difluorobiphenyl-4-ylcarbamoyl)benzoic acid]: the melting point lay in the range of 143.5 to 145.1 °C. The compound also returned an inhibition at 1 µM against h-DHODH (1 uM) of 85.8%. Also, inhibition against h-DHODH was half-maximal at 0.09 µM (IC50). Also, the inhibition at 10 µM with IL-17 amounted to 35.4%.
The compound `O=C(O)c1ccccc1C(=O)Nc1c(Cl)cc(-c2ccccc2F)cc1Cl` [Example 24, 2-(3,5-Dichloro-2′-fluorobiphenyl-4-ylcarbamoyl)benzoic acid] had a melting point of 185.4 to 193.6 °C. Besides, 1 µM produced 40.2% inhibition on h-DHODH (1 uM). Moreover, the inhibition at 10 µM in the data set on IL-17 stood at 8.46%.
In the same order, the values of `O=C(O)c1ccccc1C(=O)Nc1c(F)cc(-c2ccccc2F)cc1F` [Example 32, 2-(2′,3,5-Trifluorobiphenyl-4-ylcarbamoyl)benzoic acid] are 152.2 to 156.3 °C, 58.9% and 11.8%.
Compound `CCCOc1cccc(-c2cc(F)c(NC(=O)c3ccccc3C(=O)O)c(F)c2)c1` [Example 26, 2-(3,5-Difluoro-3′-propoxybiphenyl-4-ylcarbamoyl)benzoic acid] came in with a melting point of 128.6 to 132.1 °C. This compound came in with an inhibition at 1 µM against h-DHODH (1 uM) of 85.3%. This compound displayed an IC50 on h-DHODH of 0.122 µM. Also, the inhibition at 10 µM with IL-17 was determined as 8.7%.
As for `CCc1cccc(-c2ccc(NC(=O)c3ccccc3C(=O)O)cc2)c1` [Example 90, 2-(3′-ethylbiphenyl-4-ylcarbamoyl)benzoic acid], the melting point was in the range of 178 to 182 °C. Further, the inhibition at 1 µM against h-DHODH (1 uM) came to 29.4%. The inhibition at 10 µM in the data set with IL-17 worked out at 22.4%.
`O=C(O)c1ccccc1C(=O)Nc1c(F)cc(-c2cccc(OCc3ccccc3)c2)cc1F` [Example 13, 2-[3′-(Benzyloxy)-3,5-difluorobiphenyl-4-ylcarbamoyl]benzoic acid]: the melting point is 140.3 to 143.4 °C. Besides, the inhibition at 1 µM on h-DHODH (1 uM) is 76.4%. On h-DHODH, this compound had an IC50 of 0.15 µM. Besides, the inhibition at 10 µM with IL-17 came to 3.43%.
As for `O=C(O)c1ccccc1C(=O)Nc1ccc(-c2cccc(OC(F)(F)F)c2)cc1F` [Example 22, 2-[3-Fluoro-3′-(trifluoromethoxy)biphenyl-4-ylcarbamoyl]benzoic acid], the melting point fell in the range of 128.3 to 132.1 °C. The inhibition at 1 µM at h-DHODH (1 uM) came to 41.8%. For the same compound, the inhibition at 10 µM in the data set on IL-17 amounted to 12.9%.
With `O=C(O)c1ccccc1C(=O)Nc1ccc(-c2cccc(OC(F)(F)F)c2)cc1` [Example 88, 2-[3′-(trifluoromethoxy)biphenyl-4-ylcarbamoyl]benzoic acid], the melting point lay within 154.4 to 158.5 °C. On h-DHODH, this compound showed an inhibition at 0.3 µM of 62.2%. In the data set on IL-17, the inhibition at 10 µM was determined as 19.1%.
The compound `COc1cccc(-c2cc(F)c(NC(=O)c3ccccc3S(=O)(=O)O)c(F)c2)c1` [Example 2, 2-(3,5-Difluoro-3′-methoxybiphenyl-4-ylcarbamoyl)benzenesulfonic acid] yielded a melting point of 97 to 102 °C. At 1 µM the inhibition against h-DHODH (1 uM) was 12.2%. For the same compound, the inhibition at 10 µM in the data set on IL-17 came out at 29.2%.
In turn, `COc1ccc(Cl)c(-c2ccc(NC(=O)c3ccccc3C(=O)O)cc2F)c1` [Example 79, 2-(2′-chloro-2-fluoro-5′-methoxybiphenyl-4-ylcarbamoyl)benzoic acid] yielded a melting point of 185 to 187 °C. Besides, the inhibition at 10 µM in the data set with IL-17 came to 24.6%.
For `CC(C)COc1cccc(-c2cc(F)c(NC(=O)c3ccccc3C(=O)O)c(F)c2)c1` [Example 34, 2-(3,5-Difluoro-3′-isobutoxybiphenyl-4-ylcarbamoyl)benzoic acid], the melting point lay in the range of 112.6 to 116.4 °C. At h-DHODH (1 uM), this compound yielded an inhibition at 1 µM of 95.8%. Also, on h-DHODH, inhibition was half-maximal at 0.0625 µM (IC50). Moreover, the inhibition at 10 µM with IL-17 is 5.96%.
`O=C(O)c1ccccc1C(=O)Nc1c(Cl)cc(-c2ccccc2Cl)cc1Cl` [Example 33, 2-(2′,3,5-Trichlorobiphenyl-4-ylcarbamoyl)benzoic acid] showed a melting point of 182 to 185 °C. Also, in the data set with IL-17, the inhibition at 10 µM is 14%.
`COc1cccc(-c2ccc(NC(=O)c3ccccc3C(=O)O)cn2)c1` [Example 3, 2-(6-(3-Methoxyphenyl)pyridin-3-ylcarbamoyl)benzoic acid]: the melting point fell in the range of 194 to 199 °C. The compound further registered an inhibition at 1 µM against h-DHODH (1 uM) of 14.3%. Further, in the data set with IL-17, the inhibition at 10 µM amounted to 17.1%.
`O=C(O)c1ccccc1C(=O)Nc1c(F)cc(-c2cccc(OC(F)(F)F)c2)cc1F` [Example 12, 2-[3,5-Difluoro-3′-(trifluoromethoxy)biphenyl-4-ylcarbamoyl]benzoic acid] showed a melting point of 148.2 to 151.4 °C. The “h-DHODH % inhibition 1 uM” value at h-DHODH (1 uM) came out at 64.47%. The compound further came in with an IC50 against h-DHODH of 0.205 µM. Moreover, the inhibition at 10 µM in the data set with IL-17 is 2.96%.
Take `O=C(O)c1ccccc1C(=O)Nc1c(F)cc(-c2ccccc2)cc1F` [Example 10, 2-(3,5-Difluorobiphenyl-4-ylcarbamoyl)benzoic acid]: the melting point was in the range of 161.2 to 165.7 °C. The compound also showed an inhibition at 1 µM at h-DHODH (1 uM) of 46.8%. The inhibition at 10 µM in the data set with IL-17 turned out to be 6.82%.
Consider `O=C(O)c1cc(Cl)c(Cl)cc1C(=O)Nc1c(F)cc(-c2ccccc2Cl)cc1F` [Example 30, 4,5-Dichloro-2-(2′-chloro-3,5-difluorobiphenyl-4-ylcarbamoyl)benzoic acid], for which the melting point is 202 to 205.5 °C. Besides, at h-DHODH (1 uM), the inhibition at 1 µM is 68%. Also, the inhibition at 10 µM in the data set on IL-17 stood at 10.3%.
`CCCCOc1cccc(-c2c(F)cc(NC(=O)c3ccccc3C(=O)O)cc2F)c1` [Example 98, 2-(3′-Butoxy-2,6-difluorobiphenyl-4-ylcarbamoyl)benzoic acid] gave a melting point of 181.1 to 184.2 °C. 1 µM produced 31% inhibition on h-DHODH (1 uM).
`O=C(O)c1ccccc1C(=O)Nc1c(F)cc(-c2cccc(OC(F)(F)F)c2)cc1Cl` [Example 39, 2-[3-Chloro-5-fluoro-3′-(trifluoromethoxy)biphenyl-4-ylcarbamoyl]benzoic acid] yielded a melting point of 153 to 156.5 °C. The compound also gave an inhibition at 1 µM against h-DHODH (1 uM) of 74.4%. Also, the IC50 at h-DHODH turned out to be 0.178 µM. In addition, the inhibition at 10 µM in the data set on IL-17 was found to be 5.87%.
The compound `CCSc1cccc(-c2c(F)c(F)c(NC(=O)c3ccccc3C(=O)O)c(F)c2F)c1` [Example 78, 2-[3′-(ethylthio)-2,3,5,6-tetrafluorobiphenyl-4-ylcarbamoyl]benzoic acid] registered a melting point of 158 to 160 °C. Further, at h-DHODH, the inhibition at 0.3 µM is 32.9%. For the same compound, the inhibition at 10 µM in the data set with IL-17 is 11.1%.
Turning to `O=C(O)c1ccccc1C(=O)Nc1ccc(-c2ccccc2Cl)cc1` [Example 86, 2-(2′-chlorobiphenyl-4-ylcarbamoyl)benzoic acid], the melting point fell in the range of 243 to 247 °C. The compound also gave an inhibition at 0.3 µM against h-DHODH of 33.6%. Moreover, in the data set on IL-17, the inhibition at 10 µM amounted to 23.8%.
For the compound `CCOc1cccc(-c2cc(F)c(NC(=O)c3nccnc3C(=O)O)c(Cl)c2)c1` [Example 11, 3-(3-Chloro-3′-ethoxy-5-fluorobiphenyl-4-ylcarbamoyl)pyrazine-2-carboxylic acid], the melting point is 148 to 153 °C. Further, the inhibition at 10 µM with IL-17 came to 2.62%.
For the compound `CCCCOc1cccc(-c2ccc(NC(=O)c3ccccc3C(=O)O)c(F)c2)c1` [Example 92, 2-(3′-butoxy-3-fluorobiphenyl-4-ylcarbamoyl)benzoic acid], the melting point lay within 102 to 105 °C. On h-DHODH (1 uM), the inhibition at 1 µM stood at 9.65%.
In turn, `CCc1c[nH]c2ccc(-c3cc(F)c(NC(=O)c4ccccc4C(=O)O)c(Cl)c3)cc12` [Example 100, 2-[2-Chloro-4-(3-ethyl-1H-indol-5-yl)-6-fluorophenylcarbamoyl]benzoic acid] returned a melting point of 98 to 102 °C. Besides, on h-DHODH (1 uM), the inhibition at 1 µM amounted to 58.7%.
On to `CCSc1cccc(-c2c(F)cc(NC(=O)c3ccccc3C(=O)O)cc2F)c1` [Example 89, 2-[3′-(ethylthio)-2,6-difluorobiphenyl-4-ylcarbamoyl]benzoic acid], for which the melting point fell in the range of 162 to 167 °C. The inhibition at 10 µM with IL-17 was found to be 25.5%.
In turn, `CCCc1c[nH]c2ccc(-c3cc(F)c(NC(=O)c4ccccc4C(=O)O)c(F)c3)cc12` [Example 99, 2-[2,6-Difluoro-4-(3-propyl-1H-indol-5-yl)phenylcarbamoyl]benzoic acid] showed a melting point of 76 to 80 °C. In addition, the inhibition at 1 µM on h-DHODH (1 uM) came out at 42.6%.
As for `CCCCOc1cccc(-c2c(F)c(F)c(NC(=O)c3ccccc3C(=O)O)c(F)c2F)c1` [Example 91, 2-(3′-butoxy-2,3,5,6-tetrafluorobiphenyl-4-ylcarbamoyl)benzoic acid], the melting point lay in the range of 215.5 to 218.5 °C. Besides, at h-DHODH (1 uM), at 1 µM the inhibition was 42.4%.
In turn, `O=C(O)c1ccccc1C(=O)Nc1ccc(-c2cccc(OC3CC3)c2)cc1F` [Example 94, 2-(3′-cyclopropoxy-3-fluorobiphenyl-4-ylcarbamoyl)benzoic acid] showed a melting point of 134.5 to 137.5 °C. This compound came in with an inhibition at 1 µM at h-DHODH (1 uM) of 13.9%.

These data come from patent publication US8686048B2, “Immunomodulator and anti-inflammatory compounds” (Rhizen Pharmaceuticals SA, priority 2010, dated 2014).
